Results reported in patent US6130228A, “Polycyclic compounds” (priority 1995, dated 2000).
Read-outs that look alike come from different tables or passages of the source.

How the values were obtained:
5-HT (serotonin) uptake = assay type: biochemical, rat (Sprague Dawley)
Experimental: (§1) One male rat (Sprague Dawley) weighing approx. 200-250 g was sacrificed by cervical dislocation. The brain was dissected out and the cerebellum discarded. The brain was then weighed and 10 ml ice cold sucrose (0.32M) added per gram tissue. […] The pellet was discarded and the supernatant retained (crude synaptosomal preparation).
(§2) All tubes were set up in triplicate. […] 100 μl of the prepared synaptosomal preparation was added to each tube and incubated for 5 minutes in a shaking water bath at 37° C. Any reaction was stopped by plunging the tubes into an ice water bath. ^3 H NA (10^-7 M) or ^3 H 5-HT ([…]) was added to each tube and incubated for 5 minutes in a shaking water bath at 37° C. Any reaction was stopped by plunging the tubes into an ice-water bath. Accumulated monoamines were collected using a Brandell Cell Harvester under mild vacuum. Filters were rinsed (2×) using 4 ml of ice-cold 0.9% saline. Scintillation fluid was added (4 ml/tube). Radioactivity was measured on a scintillation counter.
(§3) Non-specific values were subtracted from total values. The control was taken as 100%. Drug effects were calculated as a percentage of control inhibitor value. A graph of log of drug concentration versus % control was plotted and IC50 values were calculated by interpolation.

[1] = biological target: T1, Butyrylcholinesterase (BChE) (Equus caballus, UniProt P81908); test: biochemical
T1 construct: purchased Sigma c-7512
Experimental: The following components were utilised:
Phosphate Buffer (0.1M, pH 7.4)
Made up to 500 ml with distilled H2 O, pH 7.4
1 ml of enzyme solution (i), was incubated with 2 ml PDS for 60 minutes at 0° C.
Components of the assay blank, controls and test solutions are provided below:
0.9 ml phosphate buffer (0.1M, pH 7.4)
0.85 ml phosphate buffer (0.1 M, pH 7.4)
0.05 ml Acetylthiocholine (5.2 mM)
(§4) 0.8 ml phosphate buffer (0.1M, pH 7.4)
Control was taken as 100%. Inhibitor was calculated as a percentage of control. A graph of Log of inhibitor conc. versus % control was plotted and IC50 values calculated by interpolation.

[2] = system: noradrenaline (NA) uptake; test: Monoamine Uptake Inhibition Assay, noradrenaline (synaptosomal preparation); assay type: biochemical, rat (Sprague Dawley)
Experimental: as §1, §2, §3

[3] = biological target: T2, Acetylcholinesterase (AChE) (Rattus norvegicus, UniProt P37136); test: biochemical; assay type: biochemical, Male Rats (Sprague Dawley), brain
T2 construct: The brain was removed and homogenised; from tissue; host or cells: rat brain (male Sprague Dawley), Triton X100 detergent supernatant of the EDTA-buffer pellet
Experimental: (i) Enzyme Source for AChE
5 Male Rats (Sprague Dawley) weighing approx 250 g were killed by CO2 overdose and cervical dislocation.
The brain was removed and homogenised (9 strokes at 840 rpm with 4 volumes of phosphate buffer pH 7.4+10 mM (EDTA) and centrifuged at 27,000 g for 30 minutes.
The supernatant was discarded and the pellet resuspended in phosphate buffer with 10 mM EDTA+1- Triton X100 (2 ml/g wet weight). The crude homogenate was centrifuged at 27,000 g for 30-40 minutes.
The pellet was discarded and the supernatant was dispensed into 0.5 ml aliquots and stored at -20° C. until required.
Phosphate Buffer (0.1M. pH 7.4)
Made up to 500 ml with distilled H2 O, pH 7.4.
0.5 ml aliquots of brain (enzyme solution) as prepared above were thawed out. 2 ml of phosphate buffer was added to each aliquot. 2 ml of the enzyme solution was incubated with 2 ml PDS for 60 minutes at 0° C. The composition of blank, control and test solutions are given below:
0.9 ml phosphate buffer (0.1 M, pH 7.4)
0.85 ml phosphate buffer (0.1M, pH 7.4)
0.05 ml acetylthiocholine (5.2 mM)
as §4
0.05 ml Acetylthiocholine 5.2 mM
Change in absorbance was measured at 30 second intervals for 3 minutes at […]. The control was taken as 100%. Inhibitor was calculated as a percentage of the control. A graph of Log of inhibitor conc. versus % control was plotted and IC5. values calculated by interpolation.

[4] = not believed to be irreversible in nature; cited from earlier work
[5] = Table 1, form BASE, n = 5, read-out: IC50 5HT UPTAKE
[6] = Table 1, form SALT, n = 5, read-out: IC50 5HT UPTAKE
[7] = Table 1, form SALT, ±SEM, n = 5, read-out: IC50 BChE
[8] = Table 1, form SALT, n = 5, read-out: IC50 NA UPTAKE
[9] = Table 1, form BASE, ±SEM, n = 5, read-out: IC50 AChE
[10] = Table 1, form SALT, ±SEM, n = 5, read-out: IC50 AChE
[11] = Table 1, form BASE, n = 5, read-out: IC50 NA UPTAKE
[12] = Table 3, read-out: 5-HT UPTAKE INHIBITION
[13] = Table 3, read-out: NA UPTAKE INHIBITION

T1 sequence (P81908 whole entry): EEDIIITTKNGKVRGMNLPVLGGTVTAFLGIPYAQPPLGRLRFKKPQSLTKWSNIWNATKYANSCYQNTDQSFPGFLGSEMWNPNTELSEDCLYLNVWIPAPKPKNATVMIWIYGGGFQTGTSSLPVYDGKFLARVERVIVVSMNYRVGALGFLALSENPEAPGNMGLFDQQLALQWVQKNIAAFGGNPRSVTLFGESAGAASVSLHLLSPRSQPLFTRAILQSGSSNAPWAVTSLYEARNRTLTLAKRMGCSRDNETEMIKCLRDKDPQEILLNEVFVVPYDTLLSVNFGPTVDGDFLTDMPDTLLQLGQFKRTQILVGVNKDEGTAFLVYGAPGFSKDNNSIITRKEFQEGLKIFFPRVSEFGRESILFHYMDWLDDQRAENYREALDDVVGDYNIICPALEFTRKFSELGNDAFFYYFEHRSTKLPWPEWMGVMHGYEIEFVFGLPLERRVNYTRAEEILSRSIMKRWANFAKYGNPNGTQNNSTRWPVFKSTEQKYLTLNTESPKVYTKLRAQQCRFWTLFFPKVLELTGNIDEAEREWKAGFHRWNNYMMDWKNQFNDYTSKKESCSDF
T2 sequence (P37136 32-614): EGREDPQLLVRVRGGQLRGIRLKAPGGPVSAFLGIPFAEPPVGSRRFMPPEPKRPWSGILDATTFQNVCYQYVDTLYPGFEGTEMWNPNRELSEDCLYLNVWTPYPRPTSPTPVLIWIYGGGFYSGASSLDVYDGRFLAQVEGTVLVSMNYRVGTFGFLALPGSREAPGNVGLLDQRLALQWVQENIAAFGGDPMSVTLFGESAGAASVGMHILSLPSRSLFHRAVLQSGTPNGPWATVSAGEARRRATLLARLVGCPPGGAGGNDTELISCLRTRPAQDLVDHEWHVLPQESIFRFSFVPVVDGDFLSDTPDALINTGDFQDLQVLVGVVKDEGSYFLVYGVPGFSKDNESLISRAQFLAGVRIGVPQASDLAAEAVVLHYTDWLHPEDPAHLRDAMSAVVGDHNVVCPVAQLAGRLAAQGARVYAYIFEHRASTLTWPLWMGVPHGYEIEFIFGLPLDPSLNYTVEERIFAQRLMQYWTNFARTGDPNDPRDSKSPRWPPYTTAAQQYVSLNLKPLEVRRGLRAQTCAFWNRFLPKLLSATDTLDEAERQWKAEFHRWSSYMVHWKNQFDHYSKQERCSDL

Structure (SMILES)	IC50 (5-HT (serotonin) uptake; [5]) [µM]	IC50 (5-HT (serotonin) uptake; [6]) [µM]	IC50 [1, 7] [µM]	IC50 [2, 8] [µM]	IC50 [3, 9] [µM]	IC50 [3, 10] [µM]	IC50 ([1]; Table 1, form BASE, ±SEM, n = 5, read-out: IC50 BChE) [µM]	IC50 [2, 11] [µM]	5-HT UPTAKE INHIBITION TACRINE RATIO (5-HT (serotonin) uptake)	IC50 (5-HT (serotonin) uptake; [12]) [µM]	BChE TACRINE RATIO [1]	IC50 ([1]; Table 2, read-out: BChE IC50) [µM]	NA UPTAKE INHIBITION TACRINE RATIO [2]	IC50 [2, 13] [µM]	AChE TACRINE RATIO [3]	IC50 ([3]; Table 2, read-out: AChE IC50) [µM]	side effect [4]
Nc1c2c(nc3ccccc13)-c1ccccc1CCC2 [Compound 6, 8-Amino-6,7-dihydro-5H-benzo-[6, 7] cyclohepta [1,2-b] quinoline]	4.7	1	4	1.9	329	17.5											
COc1cccc2c1CCc1c-2nc2ccccc2c1N [Compound 4, 7-Amino-5,6-dihydro-4-methoxybenz-[c]-acridine]	5.8	2.1	1.9	12.2	47.5	17.1	10.3	1.4									
Nc1c2c(nc3ccccc13)-c1ccccc1CC2 [Compound 3, 7 Amino-5,6-dihydro-benz-[c]-acridine]	4.6	2	3.8	13.2	37.4	7.8		12.1									
COc1ccc2c(c1)CCCc1c-2nc2ccccc2c1N [Compound 1, 13-Amino-1,2 dihydro-5-methoxy[1H] benz [7] annuleno [5,4-b] quinoline]	0.7	0.02	34.4	1.8	68.8	17.4		3.6									
Nc1c2c(nc3ccccc13)-c1ccc(Cl)cc1CC2 [Compound 5, 7-Amino-5,6-dihydro-3-chlorobenz-[c]-acridine]	14.3	5.2	7.1	6.1	144	17.9		4.1									
Nc1c2c(nc3cccc(F)c13)CCC2 [Compound 14, 9-Amino-8-fluoro-2,3-dihydro-1H-cyclopenta-[b] quinoline]									0.177	43	0.017	1.51	2.030	3.3	1.000	0.078	
Nc1c2c(nc3c(O)cccc13)CCC2 [Compound 12, 9-Amino-5-hydroxy-2,3-dihydro-1H-cyclopenta [b] quinoline]									0.524	14.5	0.050	0.5	9.571	0.7	0.078	1	
Nc1c2c(nc3cccc(Cl)c13)CCC2 [Compound 16, 9-Amino-8-chloro-2,3-dihydro-1H-cyclopenta[b]quinoline]									0.195	39	0.047	0.53	3350.000	0.002	0.557	0.14	
Nc1c2c(nc3cc(F)ccc13)CCC2 [Compound 15, 9-amino-6-fluoro-2,3-dihydro-1H-cyclopenta [b] quinoline]									0.345	22	0.610	0.041	9.571	0.7	1.219	0.064	
Nc1c2c(nc3ccccc13)CCCC2 [TACRINE, reference compound]														6.7			liver damage
Nc1c2c(nc3ccc(Cl)cc13)CCC2 [Compound 19, 9-Amino-7-chloro-2,3-dihydro-1H-cyclopenta-[b] quinoline]									1.086	7	0.019	1.32	2.481	2.7	0.060	1.3	
Nc1c2c(nc3ccc(F)cc13)CCC2 [Compound 11, 9-Amino-7-fluoro-2,3-dihydro-1H-cyclopenta-[b] quinoline]									2.054	3.7	0.033	0.75	0.558	12	0.650	0.12	
Nc1c2c(nc3ccccc13)CCC2 [Compound 29, 9-Amino-2,3-dihydro-[1H ]-cyclopenta-[b]-quinoline]									0.362	21	0.481		11.167	0.6	1.393	0.056	
Nc1c2c(nc3c(F)cccc13)CCC2 [Compound 13, 9-Amino-5-fluoro-2,3-dihydro-1H-cyclopenta-[1,2-b] quinoline]									0.181	42	0.093	0.27	9.571	0.7	0.269	0.29	
Nc1c2c(nc3c(Cl)cccc13)CCC2 [Compound 22, 9-Amino-5-chloro-2,3-dihydro-1H-cyclopenta[b] quinoline]									0.073	104	0.002	14.5	2.161	3.1	0.022	3.5	
